Literature values, collected in patent publication US7186882B2, “Transgenic mouse over-expressing calreticulin (CRT) in vascular smooth muscle cells” (priority 2003, dated 2007).
Where a SMILES comes first, the peptide text is derived from it. Bridges are numbered along the chain shown (N, C = ends).

Tests used:
[1] = tested on: MMP-2/MMP-9; details: MMP-2/MMP-9 inhibitor, values given as illustrative
[2] = tested on: CRT; details: siRNA to nucleotides 1917–1937 of SEQ ID NO. 1; Troussard et al., 2003
[3] = tested on: intimal hyperplasia after arterial injury; details: adult rats, exogenously added CRT; Dai et al., 1997
[4] = tested on: endothelial cells; details: added to the endothelial culture media; Pike et al., 1999

| Molecule | IC50 [1] [nM] | other results |
| --- | --- | --- |
| O=C(O)[C@@H](Cc1ccccc1)NS(=O)(=O)c1ccc(-c2ccccc2)cc1 [MMP-2/MMP-9 inhibitor I, (2R)-2-[(4-Biphenylylsulfonyl)amino]-3-phenylpropionic Acid] | 240 to 350 |  |
| CC(C)C[C@@H]1NC(=O)[C@H]([C@@H](C)O)NC(=O)[C@H](Cc2ccccc2)NC(=O)CNC(=O)[C@H](Cc2c[nH]c3ccccc23)NC(=O)[C@H](Cc2cnc[nH]2)NC(=O)[C@H]([C@@H](C)O)NC(=O)[C@H]([C@@H](C)O)NC(=O)[C@@H](N)CSSC[C@@H](C(=O)O)NC1=O [MMP-2/MMP-9 inhibitor III] (H-CTTHWGFTLC-OH; disulfide 1-10) | 10000 |  |
| O=C(NO)[C@@H](Cc1ccccc1)NS(=O)(=O)c1ccc(-c2ccccc2)cc1 [MMP-2/MMP-9 inhibitor II] | 17 to 30 |  |
| siRNA: small interference RNA to CRT mRNA, sense 5′-GCUGAUCGUGCGGCCGGACAA dTT 3′, anti-sense 5′-UUGUCCGGCCGCACGAUCAGC dTT 3′ (sense GCUGAUCGUGCGGCCGGACAATT; antisense UUGUCCGGCCGCACGAUCAGCTT; chemistry not fully specified) |  | expression of CRT [2]: significantly diminish the expression of CRT |
| CRT: calreticulin, 46 kDa ER protein, exogenously added to vascular cells or vessel lumen (protein, CRT peptide sequence from CRT cDNA, calreticulin, 46 kDa ER protein, exogenously added to vascular cells or vessel lumen) MLLPVPLLLGLLGLAAAEPVVYFKEQFLDGDGWTERWIESKHKSDFGKFVLSSGKFYGDQEKDKGLQTSQDARFYALSARFEPFSNKGQPLVVQFTVKHEQNIDCGGGYVKLFPAGLDQKDMHGDSEYNIMFGPDICGPGTKKVHVIFNYKGKNVLINKDIRCKDDEFTHLYTLIVRPDNTYEVKIDNSQVESGSLEDDWDFLPPKKIKDPDASKPEDWDERAKIDDPTDSKPEDWDKPEHIPDPDAKKPEDWDEEMDGEWEPPVIQNPEYKGEWKPRQIDNPDYKGTWIHPEIDNPEYSPDANIYAYDSFAVLGLDLWQVKSGTIFDNFLITNDEAYAEEFGNETWGVTKTAEKQMKDKQDEEQRLKEEEEEKKRKEEEEAEEDEEDKDDKEDEDEDEEDKDEEEEEAAAGQAKDEL |  | intimal hyperplasia (restenosis) after arterial injury [3]: reducing intimal hyperplasia; endothelial cell proliferation [4]: selectively inhibits endothelial cell proliferation |
